Experimental data from patent US20240207258A1, “HETEROCYCLIC PDK1 INHIBITORS FOR USE TO TREAT CANCER” (Viracta Therapeutics, Inc., priority 2015, published 2024).

Experiments:
[1] = tested on: KG1; test: MTS cell proliferation assay, KG1; type: cell-based; details: Homo sapiens, KG-1; KG1, 72 hr
Method: (§1) Cell proliferation was measured using the CellTiter 96 Aqueous Non-Radioactive Cell Proliferation Assay (Promega). The CellTiter 96® AQueous Assay is composed of solutions of a tetrazolium compound [3-(4,5-dimethylthiazol-2-yl)-5-(3-carboxymethoxyphenyl)-2-(4-sulfophenyl)-2H-tetrazolium, inner salt; MTS] and an electron coupling reagent (phenazine methosulfate) PMS. MTS is bioreduced by cells into a formazan product that is soluble in tissue culture medium. The absorbance of the formazan product at 490 nm can be measured directly from assay plates without additional processing. The quantity of formazan product as measured by the amount of 490 nm absorbance is directly proportional to the number of living cells in culture. Cells were seeded into 96-well or 384-well clear plates in a volume of 200 μL (96-well) or 50 μL (384-well) at optimized densities ranging from 1,000 to 40,000 cells per well for 96-well plates or 1,200 to 25,000 cells per well for 384-well plates depending on cell-line. After 4-6 hr recovery, serially diluted compounds in DMSO were added to the cells using (0.1% v/v final DMSO concentration). Cells were then grown at 37° C. in a humidified incubator with 5% CO2 for 72 hr. A 20:1 [3-(4,5-dimethylthiazol-2-yl)-5-(3-carboxymethoxyphenyl)-2-(4-sulfophenyl)-2H-tetrazolium](MTS):phenazine methosulfate (PMS) solution in DPBS was made immediately before use, added to each well, and cells were incubated for 1.5 hr at 37° C. The absorbance at 490 nm was then measured using a platereader. Absorbance values were normalized as percent of control (cells incubated in the presence of 0.1% v/v DMSO). Sigmoidal dose-response curves were plotted using log(inhibitor) vs. response—Variable slope (four parameters) model with a top value constrained to 100% (GraphPad Prism version 6.00 for Windows, GraphPad Software, La Jolla California USA). […] Curves for compounds that reached a plateau were matched exactly to the measurement points. […]

[2] = tested on: Z-138; test: MTS cell proliferation assay, Z-138; type: cell-based; details: Homo sapiens; Z-138, 72 hr
Method: as §1

[3] = tested on: SU-DHL-4; test: MTS cell proliferation assay, SU-DHL-4; type: cell-based; details: Homo sapiens; SU-DHL-4, 72 hr
Method: as §1

[4] = tested on: U-266; test: MTS cell proliferation assay, U-266; type: cell-based; details: Homo sapiens; U-266, 72 hr
Method: as §1

[5] = tested on: MOLM-16; test: MTS cell proliferation assay, MOLM-16; type: cell-based; details: Homo sapiens, MOLM16; MOLM-16, 72 hr
Method: as §1

[6] = tested on: U-937; test: MTS cell proliferation assay, U-937; type: cell-based; details: Homo sapiens; U-937, 72 hr
Method: as §1

[7] = tested on: U-2932; test: MTS cell proliferation assay, U-2932; type: cell-based; details: Homo sapiens, U2932; U-2932, 72 hr
Method: (§2) Cell proliferation was measured using the CellTiter 96 Aqueous Non-Radioactive Cell Proliferation Assay (Promega). The CellTiter 96® AQueous Assay is composed of solutions of a tetrazolium compound [3-(4,5-dimethylthiazol-2-yl)-5-(3-carboxymethoxyphenyl)-2-(4-sulfophenyl)-2H-tetrazolium, inner salt; MTS] and an electron coupling reagent (phenazine methosulfate) PMS. MTS is bioreduced by cells into a formazan product that is soluble in tissue culture medium. The absorbance of the formazan product at 490 nm can be measured directly from assay plates without additional processing. The quantity of formazan product as measured by the amount of 490 nm absorbance is directly proportional to the number of living cells in culture. Cells were seeded into 96-well or 384-well clear plates in a volume of 200 μL (96-well) or 50 μL (384-well) at optimized densities ranging from 1,000 to 40,000 cells per well for 96-well plates or 1,200 to 25,000 cells per well for 384-well plates depending on cell-line. After 4-6 hr recovery, serially diluted compounds in DMSO were added to the cells using (0.1% v/v final DMSO concentration). Cells were then grown at 37° C. in a humidified incubator with 5% CO2 for 72 hr. A 20:1 [3-(4,5-dimethylthiazol-2-yl)-5-(3-carboxymethoxyphenyl)-2-(4-sulfophenyl)-2H-tetrazolium](MTS):phenazine methosulfate (PMS) solution in DPBS was made immediately before use, added to each well, and cells were incubated for 1.5 hr at 37° C. The absorbance at 490 nm was then measured using a platereader. Absorbance values were normalized as percent of control (cells incubated in the presence of 0.1% v/v DMSO). Sigmoidal dose-response curves were plotted using log(inhibitor) vs. response—Variable slope (four parameters) model with a top value constrained to 100% (GraphPad Prism version 6.00 for Windows, GraphPad Software, La Jolla California USA). […] Curves for compounds that reached a plateau were matched exactly to the measurement points. […] To determine potential of compounds of the invention to affect viability of hematological cancers, cell lines representing various tumor types were selected and tested. Human cell lines tested were: MOLM-13 (acute myeloid leukemia (AML)), MV4-11 (AML), U-2932 (ABC-diffuse large B cell lymphoma), U-937 (histiocytic lymphoma), U-266 (multiple myeloma), RPMI-8226 (multiple myeloma), CMK (megakaryoblastic cell line), SU-DHL-4 (GCB-diffuse large B cell lymphoma), KG1 (AML), Mec-1 (chronic B-cell leukemia), MOLM-16 (AML), Jeko (B-cell lymphoma), WSU-DLCL2 (B-cell lymphoma), JJN3 (plasma cell leukemia), SU-DHL-6 (GCB-diffuse large B cell lymphoma), and Z-138 (mantle cell lymphoma). In addition, two murine cell lines were tested: A20 […].

[8] = tested on: RPMI-8226; test: MTS cell proliferation assay, RPMI-8226; type: cell-based; details: Homo sapiens; RPMI-8226, 72 hr
Method: as §2

[9] = tested on: C1498; test: MTS cell proliferation assay, C1498; type: cell-based, murine; details: Mus musculus; for EC50: C1498, 72 hr, read-out: MTS proliferation assay
Method: Cell proliferation was measured using the CellTiter 96 Aqueous Non-Radioactive Cell Proliferation Assay (Promega). […] MTS is bioreduced by cells into a formazan product that is soluble in tissue culture medium. The absorbance of the formazan product at 490 nm can be measured directly from assay plates without additional processing. The quantity of formazan product as measured by the amount of 490 nm absorbance is directly proportional to the number of living cells in culture. Cells were seeded into 96-well or 384-well clear plates in a volume of 200 μL (96-well) or 50 μL (384-well) at optimized densities ranging from 1,000 to 40,000 cells per well for 96-well plates or 1,200 to 25,000 cells per well for 384-well plates depending on cell-line. After 4-6 hr recovery, serially diluted compounds in DMSO were added to the cells using (0.1% v/v final DMSO concentration). Cells were then grown at 37° C. in a humidified incubator with 5% CO2 for 72 hr. A 20:1 [3-(4,5-dimethylthiazol-2-yl)-5-(3-carboxymethoxyphenyl)-2-(4-sulfophenyl)-2H-tetrazolium](MTS):phenazine methosulfate (PMS) solution in DPBS was made immediately before use, added to each well, and cells were incubated for 1.5 hr at 37° C. The absorbance at 490 nm was then measured using a platereader. Absorbance values were normalized as percent of control (cells incubated in the presence of 0.1% v/v DMSO). Sigmoidal dose-response curves were plotted using log(inhibitor) vs. response—Variable slope (four parameters) model with a top value constrained to 100% (GraphPad Prism version 6.00 for Windows, GraphPad Software, La Jolla California USA). […] To determine potential of compounds of the invention to affect viability of hematological cancers, cell lines representing various tumor types were selected and tested. […] In addition, two murine cell lines were tested: A20 […].

[10] = tested on: A20; test: MTS cell proliferation assay, A20; type: cell-based, murine; details: Mus musculus; A20, 72 hr
Method: as §2

SMILES | EC50 [1] [nM] | EC50 [2] [nM] | EC50 [3] [nM] | EC50 [4] [nM] | EC50 [5] [nM] | EC50 [6] [nM] | EC50 [7] [nM] | EC50 [8] [nM] | EC50 [9] [nM] | EC50 [10] [nM] | inhibition at 0.2 µM ([9]; C1498, 200 nM, read-out: growth inhibition) [%]
C[C@H](NC(=O)c1nc(C#N)cnc1NCc1ccc(-c2cnc3[nH]nc(N)c3n2)cc1)c1ccc(F)c(F)c1 [Compound 1, 3-[4-(3-Amino-1H-pyrazolo[3,4-b]pyrazin-5-yl)-benzylamino]-6-cyano-pyrazine-2-carboxylic acid [1-(3,4-difluoro-phenyl)-ethyl]-amide] | 175 | 718 | 313 | 226 | 248 | 123 | 108 | 174 | 53 | 156 | –
CNc1n[nH]c2ncc(-c3ccc(CNc4ncc(C#N)nc4C(=O)N[C@@H](C)c4ccc(F)c(F)c4)cc3)cc12 [Compound 2, 6-Cyano-3-[4-(3-methylamino-1H-pyrazolo[3,4-b]pyridin-5-yl)-benzylamino]-pyrazine-2-carboxylic acid [1-(3,4-difluoro-phenyl)-ethyl]-amide] | 195 | 684 | 186 | 130 | 227 | 74 | 56 | 163 | 45 | 114 | 80
